In patent US9340507B2, “Substituted 4-pyridones and their use as inhibitors of neutrophil elastase activity” (Boehringer Ingelheim International GmbH, priority 2012, dated 2016):

System: not listed separately
Assay: Determination of aqueous solubility from DMSO stock solutions (kinetic solubility method)
Format: physicochemical
Details: McIlvaine buffer pH 6.8, 24 h shaking, 2.5% DMSO, range 0.001 to 0.125 mg/ml
Method: Determination of Aqueous Solubility from DMSO Stock Solutions (“Kinetic Solubility Method”)
The aqueous solubility of examples of this invention is determined by comparing the amount dissolved in buffer to the amount dissolved in an acetonitrile/water (1/1) solution. Starting from a 10 mM DMSO stock solution, aliquots are diluted with acetonitrile/water (1/1) and McIlvaine buffer pH 6.8, respectively. After 24 h of shaking, the liquid phase is filtered and analyzed by LC-UV. The amount dissolved in buffer is compared to the amount dissolved in the acetonitrile/water (1/1) solution. Solubility is measured from 0.001 to 0.125 mg/ml at a DMSO concentration of 2.5%.

| aqueous solubility at pH 6.8 [mg/mL] | SMILES |
| --- | --- |
| 0.081 | Cc1c(-c2cccc(C(F)(F)F)c2)c(=O)c(C(=O)NCc2ccc([S+](C)[O-])cc2)cn1C(C)C (single isomer, unassigned) [Example 27.1A] |
| 0.076 | Cc1c(-c2cccc(C(F)F)c2)c(=O)c(C(=O)NCc2ccc(S(C)(=O)=O)cc2)cn1C(C)C [Example 4.14] |

Biological target: Human neutrophil elastase (Homo sapiens (Human), UniProt P08246)
Sequence (P08246 30-267): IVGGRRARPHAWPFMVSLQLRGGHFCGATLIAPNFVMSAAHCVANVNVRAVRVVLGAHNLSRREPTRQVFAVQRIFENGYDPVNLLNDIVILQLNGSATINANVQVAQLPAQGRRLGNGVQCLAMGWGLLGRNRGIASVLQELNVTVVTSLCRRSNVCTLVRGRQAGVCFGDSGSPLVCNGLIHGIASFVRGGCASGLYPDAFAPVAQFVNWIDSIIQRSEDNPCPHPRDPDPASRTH
Assay: Human Neutrophil Elastase Assay
Format: biochemical
Details: substrate MeOSuc-Ala-Ala-Pro-Val-AMC 250 μM, pH 7.5, fluorescence
Method: Human Neutrophil Elastase Assay
All other materials were of the highest grade commercially available.
The following buffers were used: Compound buffer: 100 mM Tris, 500 mM NaCl, adjusted to pH 7.5; Assay buffer: 100 mM Tris, 500 mM NaCl, adjusted to pH 7.5, containing 0.01% BSA.
Assay conditions: Test compounds were prediluted in DMSO and subsequently in compound buffer (5% DMSO final). […] After inactivation of the enzyme, fluorescence intensities were measured at 380 nm excitation and 460 nm emission wavelengths.
Each plate contains wells with a high value control (DMSO+enzyme+substrate) and wells with a low value control (DMSO+inactivated enzyme+substrate). IC50 values were estimated using a sigmoidal concentration response curve with variable slope. Means of low values were taken as 0%, means of high values as 100%. IC50 values of selected compound in the Neutrophil Elastase assay: […]

| IC50 [nM] | SMILES |
| --- | --- |
| 5.4 | Cc1c(-c2cccc(C(F)(F)F)c2)c(=O)c(C(=O)NCc2ccc([S+](C)[O-])cc2)cn1C(C)C (single isomer, unassigned) [Example 27.1A] |
| 11 | Cc1c(-c2cccc(C(F)F)c2)c(=O)c(C(=O)NCc2ccc(S(C)(=O)=O)cc2)cn1C(C)C [Example 4.14] |
| 11 | CCc1c(-c2cccc(C(F)(F)F)c2)c(=O)c(C(=O)NCc2ccc(S(=O)(=O)CC)cc2)cn1C(C)C [Example 30.2, 6-Ethyl-1-isopropyl-4-oxo-5-(3-trifluoromethyl-phenyl)-1,4-dihydro-pyridine-3-carboxylic acid 4-ethanesulfonyl-benzylamide] |
| 65 | Cc1c(-c2cccc(C(F)(F)F)c2)c(=O)c(C(=O)NCc2ccc(N3CCNC3=O)cc2)cn1C(C)C [Example 3.8] |
| 57 | Cc1nnc(CNC(=O)c2cn(C3CCC3)c(C)c(-c3cccc(C(F)(F)F)c3)c2=O)o1 [Example 24.1, 1-Cyclobutyl-6-methyl-4-oxo-5-(3-trifluoromethyl-phenyl)-1,4-dihydro-pyridine-3-carboxylic acid (5-methyl-[1,3,4]oxadiazol-2-ylmethyl)-amide] |
| 43 | Cc1nnc(CNC(=O)c2cn(C3CCCC3)c(C)c(-c3cccc(C(F)(F)F)c3)c2=O)o1 [Example 8.1, 1-Cyclopentyl-6-methyl-4-oxo-5-(3-trifluoromethyl-phenyl)-1,4-dihydro-pyridine-3-carboxylic acid (5-methyl-[1,3,4]oxadiazol-2-ylmethyl)-amide] |
| 5 | CCC(CC)n1cc(C(=O)NCc2ccc(S(C)(=O)=O)cn2)c(=O)c(-c2cccc(C(F)F)c2)c1C [Example 23.2, 5-(3-Difluoromethyl-phenyl)-1-(1-ethyl-propyl)-6-methyl-4-oxo-1,4-dihydro-pyridine-3-carboxylic acid (5-methanesulfonyl-pyridin-2-ylmethyl)-amide] |
| 48 | Cc1c(-c2cc(Cl)cc(C(F)(F)F)c2)c(=O)c(C(=O)NCc2ccc(S(C)(=O)=O)cc2)cn1C(C)C [Example 5.3] |
| 30 | CC[C@@H](C)n1cc(C(=O)NCc2nnc(C)o2)c(=O)c(-c2cccc(C(F)F)c2)c1C [Example 25.2, (R)-1-sec-Butyl-5-(3-difluoromethyl-phenyl)-6-methyl-4-oxo-1,4-dihydro-pyridine-3-carboxylic acid (5-methyl-[1,3,4]oxadiazol-2-ylmethyl)-amide] |
| 61 | Cc1c(-c2ccc(F)c(C(F)F)c2)c(=O)c(C(=O)NCc2ccc(S(C)(=O)=O)cc2)cn1C(C)C [Example 5.4] |
| 34 | Cc1c(-c2cccc(C(F)(F)F)c2)c(=O)c(C(=O)NCc2ccc(S(C)(=O)=O)cc2)cn1CCF [Example 45, 1-(2-Fluoro-ethyl)-6-methyl-4-oxo-5-(3-trifluoromethyl-phenyl)-1,4-dihydro-pyridine-3-carboxylic acid 4-methanesulfonyl-benzylamide] |
| 40 | CC[C@@H](C)n1cc(C(=O)NCc2ccc(S(C)(=O)=O)cn2)c(=O)c(-c2ccnc(C(F)(F)F)c2)c1C [Example 19.3, (R)-1-sec-Butyl-2-methyl-4-oxo-2′-trifluoromethyl-1,4-dihydro-[3,4′]bipyridinyl-5-carboxylic acid (5-methanesulfonyl-pyridin-2-ylmethyl)-amide] |
| 20 | Cc1c(-c2cccc(C(F)(F)F)c2)c(=O)c(C(=O)NCc2ccc(CN3CCCC3=O)cc2)cn1C(C)C [Example 3.9] |
| 27 | Cc1c(-c2cccc(C(F)(F)F)c2)c(=O)c(C(=O)NCc2ccc(S(C)(=O)=O)cn2)cn1C1CCOC1 (centres unmarked) [Example 22, 6-Methyl-4-oxo-1-(tetrahydro-furan-3-yl)-5-(3-trifluoromethyl-phenyl)-1,4-dihydro-pyridine-3-carboxylic acid (5-methanesulfonyl-pyridin-2-ylmethyl)-amide] |
| 20 | Cc1c(-c2cccc(C(F)F)c2)c(=O)c(C(=O)NCc2ccc(CN3CCCC3=O)cc2)cn1C(C)C [Example 4.13] |
| 32 | Cc1c(-c2cccc(C(F)(F)F)c2)c(=O)c(C(=O)NCc2ccc(S(C)(=O)=O)cn2)cn1C1CCC1 [Example 18.1, 1-Cyclobutyl-6-methyl-4-oxo-5-(3-trifluoromethyl-phenyl)-1,4-dihydro-pyridine-3-carboxylic acid (5-methanesulfonyl-pyridin-2-ylmethyl)-amide] |
| 38 | Cc1nnc(CNC(=O)c2cn(C(C)C)c(C)c(-c3cccc(C(F)(F)F)c3)c2=O)o1 [Example 3.1, 1-Isopropyl-6-methyl-4-oxo-5-(3-trifluoromethyl-phenyl)-1,4-dihydro-pyridine-3-carboxylic acid (5-methyl-[1,3,4]oxadiazol-2-ylmethyl)-amide] |
| 63 | Cc1c(-c2cccc(C(F)F)c2)c(=O)c(C(=O)NCc2cccc(S(C)(=O)=O)c2)cn1C(C)C [Example 4.9] |
| 24 | CCC(CC)n1cc(C(=O)NCc2ccc(S(C)(=O)=O)cc2)c(=O)c(-c2ccnc(C(F)(F)F)c2)c1C [Example 15.3, 1-(1-Ethyl-propyl)-2-methyl-4-oxo-2′-trifluoromethyl-1,4-dihydro-[3,4]bipyridinyl-5-carboxylic acid 4-methanesulfonyl-benzylamide] |
| 29 | CCn1cc(C(=O)NCc2ccc(S(C)(=O)=O)cc2)c(=O)c(-c2cccc(C(F)F)c2)c1C [Example 10, 5-(3-Difluoromethyl-phenyl)-1-ethyl-6-methyl-4-oxo-1,4-dihydro-pyridine-3-carboxylic acid 4-methanesulfonyl-benzylamide] |
| 40 | Cc1c(-c2cccc(C(F)(F)F)c2)c(=O)c(C(=O)NCc2ccc(S(N)(=O)=O)cc2)cn1C(C)C [Example 3.7] |
| 47 | COc1cc(CNC(=O)c2cn(C(C)C)c(C)c(-c3cccc(C(F)(F)F)c3)c2=O)ccc1S(C)(=O)=O [Example 49, 1-Isopropyl-6-methyl-4-oxo-5-(3-trifluoromethyl-phenyl)-1,4-dihydro-pyridine-3-carboxylic acid 4-methanesulfonyl-3-methoxy-benzylamide] |
| 7.8 | Cc1c(-c2cccc(C(F)F)c2)c(=O)c(C(=O)NCc2ccc3c(c2)C=CS3(=O)=O)cn1C(C)C [Example 50, 5-(3-Difluoromethyl-phenyl)-1-isopropyl-6-methyl-4-oxo-1,4-dihydro-pyridine-3-carboxylic acid (1,1-dioxo-1H-1λ^6-benzo[b]thiophen-5-ylmethyl)-amide1] |
| 46 | CCC(CC)n1cc(C(=O)NCc2ccc(S(C)(=O)=O)cn2)c(=O)c(-c2ccnc(C(F)(F)F)c2)c1C [Example 23.3, 1-(1-Ethyl-propyl)-2-methyl-4-oxo-2′-trifluoromethyl-1,4-dihydro-[3,4]bipyridinyl-5-carboxylic acid (5-methanesulfonyl-pyridin-2-ylmethyl)-amide] |
| 12 | Cc1c(-c2cccc(C(F)(F)F)c2)c(=O)c(C(=O)NCc2ccc(S(C)(=O)=O)cc2)cn1C(C)C [Example 1.2, 1-isopropyl-6-methyl-4-oxo-5-(3-trifluoromethyl-phenyl)-1,4-dihydro-pyridine-3-carboxylic acid 4-methanesulfonyl-benzylamide] |
| 26 | Cc1c(-c2cccc(C(F)(F)F)c2)c(=O)c(C(=O)NCc2ccc(S(C)(=O)=O)cc2F)cn1C(C)C [Example 34, 1-Isopropyl-6-methyl-4-oxo-5-(3-trifluoromethyl-phenyl)-1,4-dihydro-pyridine-3-carboxylic acid 2-fluoro-4-methanesulfonyl-benzylamide] |
| 10 | Cc1c(-c2cccc(C(F)F)c2)c(=O)c(C(=O)NCc2ccc([S+](C)[O-])cc2)cn1C(C)C (centres unmarked) [Example 4.8] |
| 37 | CC[C@@H](C)n1cc(C(=O)NCc2nnc(C)o2)c(=O)c(-c2cccc(C(F)(F)F)c2)c1C [Example 25.1, (R)-1-sec-Butyl-6-methyl-4-oxo-5-(3-trifluoromethyl-phenyl)-1,4-dihydro-pyridine-3-carboxylic acid (5-methyl-[1,3,4]oxadiazol-2-ylmethyl)-amide] |
| 15 | Cc1c(-c2cccc(C(F)F)c2)c(=O)c(C(=O)NCc2ccc(S(C)(=O)=O)cn2)cn1C(C)C [Example 17.2, 5-(3-Difluoromethyl-phenyl)-1-isopropyl-6-methyl-4-oxo-1,4-dihydro-pyridine-3-carboxylic acid (5-methanesulfonyl-pyridin-2-ylmethyl)-amide] |

| SMILES | IC50 [nM] |
| --- | --- |
| Cc1c(-c2cccc(C(F)(F)F)c2)c(=O)c(C(=O)NCc2ccc(S(C)(=O)=O)cc2)cn1CC1CC1(F)F (centres unmarked) [Example 1.7] | 37 |
